In US11787800B2, “BRD9 degraders and uses thereof” (Foghorn Therapeutics Inc., priority 2020, dated 2023):

Columns and labels:
Assay type in all cases: cell-based
[1] = tested on: non-synovial control cancer cell lines (RD, HCT116, and Calu6); assay: Crystal violet growth assay, day 14, non-synovial control cancer cell lines, Example 4; conditions: daily treatment, day 14, crystal violet, FIGS. 8 and 9
Method: (§1) Procedure: Cells were seeded into 6-well or 12-well plates and were treated daily with a BRD9 degrader (Compound 1), a bromo-domain BRD9 binder (Compound 2), E3 ligase binder (lenalidomide), DMSO, or staurosporin (positive control for cell killing), at indicated concentrations. The number of cells was optimized for each cell line. Growth media was refreshed every 5 days. By day 14, medium was removed, cells were washed with PBS, and stained using 500 μL of 0.005% (w/v) crystal violet solution in 25% (v/v) methanol for at least 1 hour at room temperature. Subsequently plates were scanned on an Odyssey CLx Imaging system.

[2] = tested on: non-synovial control cancer cell lines (293T, A549, G401); assay: Growth of non-synovial control cancer cell lines, Example 3; conditions: FIGS. 5, 6, 7
Method: (§2) Growth medium and compounds were refreshed every 3-4 days.
(§3) The number of cells was optimized for each cell line. Growth medium and compounds were refreshed every 3-5 days. SYO1, Yamato, A549, 293T and HS-SY-II cells were fixed and stained at day 11. ASKA cells were fixed and stained at day 23. Staining was done by incubation with crystal violet solution (0.5 g Crystal Violet, 27 ml 37% Formaldehyde, 100 mL 10×PBS, 10 mL Methanol, 863 dH20 to 1 L) for 30 min followed by 3× washes with water and drying the plates for at least 24 h at room temperature. Subsequently plates were scanned on an Odyssey CLx Imaging system (FIG. 6).
(§4) Cells were seeded into 96-well ultra low cluster plate (Costar, #7007) in 200 μL complete media and treated at day 2 with DMSO, Staurosporin, or BRD9 degarder, Compound 1, at indicated doses (FIG. 7). Media and compounds were changed every 5 d and cell colonies were imaged at day 14.

[3] = tested on: synovial sarcoma cell lines (SYO1, Yamato, HS-SY-II, and ASKA); assay: Growth of synovial sarcoma cell lines (IncuCyte confluency, crystal violet staining, colony imaging), Example 3; conditions: FIGS. 5, 6, 7, 1 μM in crystal violet assay
Method: as §2, §3, §4

[4] = tested on: synovial sarcoma cell lines (SYO1, HS-SY-II, and ASKA); assay: Crystal violet growth assay, day 14, synovial sarcoma cell lines, Example 4; conditions: for growth of synovial sarcoma cell lines: SYO1, HS-SY-II, ASKA, daily treatment, day 14, crystal violet, FIGS. 8 and 9
Method: as §1

[5] = tested on: SYO1 cells; assay: Apoptosis assay, Annexin V-FITC Apoptosis Detection Kit; conditions: 200 nM or 1 μM, 8 days, compared to DMSO controls
Method: (§5) Compounds were refreshed every 5 days. Cell cycle analysis was performed using the Click-iT™ Plus EdU Flow Cytometry Assay (Invitrogen). The apoptosis assay was performed using the Annexin V-FITC Apoptosis Detection Kit (Sigma A9210). Assays were performed according to the manufacturer's protocol.

[6] = tested on: SYO1 cells; assay: Cell cycle analysis, Click-iT Plus EdU Flow Cytometry Assay; conditions: 200 nM or 1 μM, 8 or 13 days, compared to DMSO and lenalidomide
Method: as §5

Compound	growth of non-synovial control cancer cell lines [1]	growth of non-synovial control cancer cell lines [2]	growth of synovial sarcoma cell lines [3]	growth of synovial sarcoma cell lines [4]	numbers of early- and late-apoptotic cells [5]	growth inhibition compared among the test agents ([4]; all synovial cell lines)	numbers of cells in the S-phase of the cell cycle [6]
COc1cc(-c2cn(C)c(=O)c3cnccc23)cc(OC)c1CN(C)C [Compound B]	did not result in inhibition of the growth	does not result in inhibition of the growth	inhibition of the growth of the cells	inhibition of the growth of the cells			
COc1cc(-c2cn(C)c(=O)c3cnccc23)cc(OC)c1CN(C)CC(=O)NCCOCCOCCNc1cccc2c1C(=O)N(C1CCC(=O)NC1=O)C2=O (centres unmarked) [Compound A]	did not result in inhibition of the growth	does not result in inhibition of the growth	inhibition of the growth of the cells	inhibition of the growth of the cells	increased numbers of early- and late-apoptotic cells	most significant growth inhibition	reduced numbers of cells in the S-phase
